In PMC3574217 (Journal of medicinal chemistry, 2013):

Tests used:
cardiac P2X4R = conditions: cardiomyocytes obtained from the CSQ mouse; cited from earlier work
aorta ring preparations = conditions: cited from earlier work
[1] = system: CSQ-overexpressing mice with heart failure; conditions: chronic administration; cited from earlier work
[2] = system: adult WT murine cardiac ventricular myocytes; assay: Contractile response; format: cell-based, mouse; conditions: vs control basal condition, P<0.05
[3] = 24 h
[4] = system: LAD ligation model of ischemic heart failure in mice; assay: LAD ligation ischemic heart failure model, echocardiography-derived FS; format: in vivo, mouse; conditions: infusion 28 days
[5] = system: LAD ligation model of ischemic heart failure in mice; assay: Ex vivo isolated working heart preparation; format: in vivo, mouse; conditions: infusion 28 days
[6] = system: CSQ-overexpressing mice with heart failure; assay: CSQ-overexpressing mouse model of heart failure; format: in vivo
[7] = Stability in rat liver microsomes; conditions: 24 h, 37°C
Stability in rat plasma = conditions: 24 h, 37°C

Structure (SMILES)	protection in the LAD model (increase in FS), in words [4]	protection in ex vivo working heart (+dP/dt), in words [5]	cardioprotection in CSQ model, in words ([6]; infusion)	also measured
Nc1nc(Cl)nc2c1ncn2[C@H]1[C@H](O)[C@H](O)[C@@]2(COP(=O)(O)O)C[C@@H]12 [Compound 1, (1’S,2’R,3’S,4’R,5’S)-4-(6-amino-2-chloro-9H-purin-9-yl)-1-[phosphoryloxy-methyl]bicyclo[3.1.0]hexane-2,3-diol]	–	–	–	P2X-like current in cardiomyocytes (cardiac P2X4R): induced a current that is characteristic of the action of the cardiac P2X4R; vasodilator action (aorta ring preparations): devoid of any vasodilator action; cardioprotection in CSQ mouse model [1]: rescued the hypertrophic and heart failure phenotype; contraction shortening (CS) [2]: modest increase in contraction shortening; stability to acidic conditions ([3]; pH 1.5, 37°C, data not shown): stable
Nc1nc(Cl)nc2c1ncn2[C@H]1[C@H](O)[C@H](O)[C@]2(CCP(=O)(O)O)C[C@H]12 [Compound 3, (1’S,2’R,3’S,4’R,5’S)-4’-(6-amino-2-chloropurin-9-yl)-2’,3’-(dihydroxy)-1’-(phosphonoethylene)-bicyclo[3.1.0]hexane]	–	–	–	cardioprotection in CSQ mouse model [1]: protective; contraction shortening (CS) [2]: modest increase in contraction shortening
[2H]C([2H])(OP(=O)(O)O)[C@@]12C[C@@H]1[C@@H](n1cnc3c(N)nc(Cl)nc31)[C@H](O)[C@@H]2O [Compound 4, (1’S,2’R,3’S,4’R,5’S)-4-(6-Amino-2-chloro-9H-purin-9-yl)-1-[phosphoryloxydideuteromethyl]-2,3-diol-bicyclo[3.1.0]hexane]	significantly protective	–	–	–
Nc1nc(Cl)nc2c1ncn2[C@H]1[C@H](O)[C@H](O)[C@]2(CSP(=O)(O)O)C[C@H]12 [Compound 5, (1’S,2’R,3’S,4’R,5’S)-4-(6-Amino-2-chloro-purin-9-yl)-2,3-(dihydroxy)-1-[monophosporothioate]-bicyclo-[3.1.0]hexane]	–	able to improve function	could protect	–
Nc1nc(I)nc2c1ncn2[C@H]1[C@H](O)[C@H](O)[C@]2(CP(=O)(O)O)C[C@H]12 [Compound 6, (1’S,2’R,3’S,4’R,5’S)-4’-(6-Amino-2-iodoropurin-9-yl)-2’,3’-(dihydroxy)-1’-(phosphonomethylene)-bicyclo[3.1.0]hexane]	–	able to improve function	abolished protection	effect on FS in CSQ mice ([6]; infusion, compared to vehicle): did not improve FS; LV wall thickness in CSQ mice, in words ([6]; vs NS-infused CSQ mice): did not improve FS (Table S2) or prevent LV wall thinning
CCOP(=O)(OCC)OC[C@@]12C[C@@H]1[C@@H](n1cnc3c(N)nc(Cl)nc31)[C@H](O)[C@@H]2O [Compound 7, (1’S,2’R,3’S,4’R,5’S)-4-(6-Amino-2-chloro-9H-purin-9-yl)-1-[(diethylphosphate)methyl]-2,3-(dihydroxy)-bicyclo[3.1.0]hexane]	highly protective	able to improve function	cardioprotective activity was seen	–
CC(C)OP(=O)(OC[C@@]12C[C@@H]1[C@@H](n1cnc3c(N)nc(Cl)nc31)[C@H](O)[C@@H]2O)OC(C)C [Compound 8, (1’S,2’R,3’S,4’R,5’S)-4-(6-Amino-2-chloro-9H-purin-9-yl)-1-[(diisopropylphosphate)methyl]-2,3-(dihydroxy)-bicyclo[3.1.0]hexane]	highly protective	–	–	–
CC(C)(C)OP(=O)(OC[C@@]12C[C@@H]1[C@@H](n1cnc3c(N)nc(Cl)nc31)[C@H](O)[C@@H]2O)OC(C)(C)C [Compound 9, (1’S,2’R,3’S,4’R,5’S)-4-(6-Amino-2-chloro-9H-purin-9-yl)-2,3-(dihydroxy)-1-[(t-butylphosphate)methyl]-bicyclo[3.1.0]hexane]	–	able to improve function	–	–
[2H]C([2H])(OP(=O)(OCC)OCC)[C@@]12C[C@@H]1[C@@H](n1cnc3c(N)nc(Cl)nc31)[C@H](O)[C@@H]2O [Compound 10, (1’S,2’R,3’S,4’R,5’S)-4-(6-Amino-2-chloro-9H-purin-9-yl)-2,3-(dihydroxyl)-1-[(di-ethylphosphate)dideuteromethyl]bicyclo[3.1.0]hexane]	did not fully protect	–	–	–
CCOP(=O)(OCC)SC[C@@]12C[C@@H]1[C@@H](n1cnc3c(N)nc(Cl)nc31)[C@H](O)[C@@H]2O [Compound 11, (1’S,2’R,3’S,4’R,5’S)-4-(6-Amino-2-chloro-purin-9-yl)-1-[O,O-diethyl S-methyl phosphorothioate]-2,3-(dihydroxyl)-bicyclo-[3.1.0]hexane]	protective	–	–	–
CCOP(=S)(OCC)SC[C@@]12C[C@@H]1[C@@H](n1cnc3c(N)nc(Cl)nc31)[C@H](O)[C@@H]2O [Compound 13, (1’S,2’R,3’S,4’R,5’S)-4-(6-Amino-2-chloro-purin-9-yl)-1-[O,O-diethyl S-methyl phosphorodithioate]-2,3-(dihydroxyl)-bicyclo-[3.1.0]hexane]	protective	–	–	–
CCOP(=O)(C[C@@]12C[C@@H]1[C@@H](n1cnc3c(N)nc(Cl)nc31)[C@H](O)[C@@H]2O)OCC [Compound 14, Diethyl-(1’S,2’R,3’S,4’R,5’S)-4’-(6-amino-2-chloropurin-9-yl)-2’,3’-(hydroxy)-bicyclo[3.1.0]hexane phosphonate]	–	did not protect	inactive	stability in the presence of microsomes from rat liver [7]: unable to demonstrate any hydrolysis; stability in the presence of rat plasma (Stability in rat plasma): stable; stability in aqueous medium at pH 1 ([3]; 50°C): unable to demonstrate any hydrolysis; stability in aqueous medium at pH 11 ([3]; 50°C): unable to demonstrate any hydrolysis
